Results as given in US20250282798A1, “HETEROARYL-SUBSTITUTED BICYCLIC COMPOUND AND USE THEREOF” (Medshine Discovery Inc., priority 2022, published 2025).

How the values were obtained:
Assay type in all cases: in vitro ADME
[1] = tested on: MDR1-MDCK II cell line; experiment: Permeability evaluation in MDR1-MDCK II cells
Description: (§1) Cell line: The MDR1-MDCK II cell line authorized by Piet Borst's laboratory at the Netherlands Cancer Research Institute was used in this assay as an in vitro model for the permeability evaluation assay. The cells were inoculated in a Transwell-96 well cell plate at a density of 2.3×10^5 cells/cm^2, and cultured in a carbon dioxide incubator for 4-7 days before use in the transport assay.
(§2) The administration concentration of the test sample was 2.00 μM.
(§3) Test direction and number of parallel samples: bidirectional A-B and B-A, 2 parallels
(§4) Transport buffer (TB): HBSS solution containing 10 mM HEPES (pH 7.40±0.05)
(§5) Incubation conditions: 37±1° C., 5% CO2, incubated for 150 minutes
(§6) Control compounds: Nadolol and metoprolol were used as low-permeability and high-permeability control compounds. Digoxin was used as a substrate of P-glycoprotein. The administration concentration of nadolol and metoprolol was 2.00 μM, and the administration concentration of digoxin was 10.0 μM.
(§7) After the transport assay, the integrity of the MDR1-MDCK II cell layer was assayed by the Lucifer Yellow Rejection Assay. The remaining solution in the apical and basolateral wells was removed. 75 μL of TB containing 100 μM Lucifer Yellow was added to the apical well, and 250 μL of TB was added to the basolateral well. The cell plate was incubated in a cell culture incubator at 37±1° C., 5% CO2 and saturated humidity for 30 minutes. Then, 20 μL of sample was taken from the apical well and mixed with 60 μL of TB, and 80 μL of sample was taken from the basolateral well. The relative fluorescence unit (RFU) was measured at 425/528 nm (excitation/emission) using a microplate reader.
(§8) In this assay, the sample analysis of the test samples and control compounds of nadolol, metoprolol, and digoxin was performed by liquid chromatography-tandem mass spectrometry (LC-MS/MS). The retention time of the analytes and internal standards, chromatogram acquisition, and chromatogram integration were processed using the software Analyst (Sciex, Framingham, MA, USA). The sample analysis was semi-quantitatively determined using the peak area of analyte and the peak area of internal standard.
(§9) VR is the volume of the receiver end solution (0.075 mL for side A, and 0.25 mL for side B); Area is the relative surface area of the cell monolayer (0.0804 cm2); Time is the incubation time (9000 s); C0 is the peak area ratio of the compound at the administration end; VD is the volume of the administration end (0.075 mL for side A, and 0.25 mL for side B); CD and CR are the peak area ratios of the compound at the administration end and the receiver end, respectively.

[2] = tested on: MDR1 (P-glycoprotein); experiment: Permeability evaluation in MDR1-MDCK II cells; conditions: dog, pH 7.4, 2.00 μM, 150 minutes
Description: as §1, §2, §3, §4, §5, §6, §7, §8, §9

[3] = Permeability evaluation in MDR1-MDCK II cells; conditions: dog
Description: as §1, §2, §3, §4, §5, §6, §7, §8, §9

| Structure (SMILES) | Efflux ratio ([1]; 2.00 μM, 150 minutes) | Permeability Papp A to B ([1]; 2.00 μM, 150 minutes) | Permeability Papp B to A ([1]; 2.00 μM, 150 minutes) | Conclusion of the permeability ([1]; class by Papp) | efflux ratio at 150 min, 2 μM [2] | Papp A→B at 150 min, 2 μM ([3]; pH 7.4, 2.00 μM, 150 minutes) [nm/s] | Papp B→A at 150 min, 2 μM ([3]; pH 7.4, 2.00 μM, 150 minutes) [nm/s] | Papp at 150 min, 2 μM ([3]; pH 7.4, class by Papp, read-out: Conclusion of the permeability) [nm/s] |
| --- | --- | --- | --- | --- | --- | --- | --- | --- |
| Cn1ccc2c(-c3ncc(Nc4ccc5c(n4)OC[C@@H]4COCCN54)c4c3CNC4=O)ccnc21 [Compound 4] | 4.97 | 5.20 10^−6 cm/s | 25.84 10^−6 cm/s | Medium (Medium permeability 1.0 < Papp < 5.5 (×10^−6 cm/s)) |  |  |  |  |
| O=C1NCc2c(-c3cnc4cc(F)ccn34)ccc(Nc3ccc4c(n3)OC[C@@H]3COCCN43)c21 [Compound 8] |  |  |  |  | 7.19 | 19.7 | 142 | 10 to 55 |
